Values of other authors in US8795652B1, “Methods and compositions to treat myocardial conditions” (Abbott Cardiovascular Systems Inc., priority 2003, dated 2014).

Columns and labels:
[1] = system: ductus arteriosus

Row | SMILES | arterial oxygen saturation ([1]; four neonates, infused prior to and during surgery) | side effects ([1]; in vivo) | O2 solubility at 37° C. [V %]
1 | CCCCC[C@H](O)/C=C/[C@H]1[C@H](O)CC(=O)[C@@H]1C/C=C\CCCC(=O)O [PGE2, prostaglandin E2] | immediate and persistent rise | No major side effects occurred, except for pyrexia in two infants | 
2 | FC1(F)C(F)(F)C(F)(F)C2(F)C(F)(F)C(F)(F)C(F)(F)C(F)(F)C2(F)C1(F)F (stereo not shown) [FDC, Perfluorodecalin] |  |  | 45
3 | FC(F)(F)C(F)(F)C(F)(F)C(F)(F)CCC(F)(F)C(F)(F)C(F)(F)C(F)(F)F [F-44E, 1,2-bis(perfluorobutyl)ethane] |  |  | 50
